“And” between values parts separate entries of the source, which are not always exact repeats. Identical values can stand only once.
Columns and labels:
[1] = test system: adult subjects with major depressive disorder (MDD); assay: Phase 3 MDD study (NCT04442490): safety and tolerability (TEAEs, C-SSRS, PWC-20); format: in vivo, human
Experimental: • Incidence and severity of adverse events/serious adverse events • Changes from baseline in clinical laboratory measures, vital signs, and electrocardiograms (ECGs) • Suicidal ideation and behavior using the Columbia Suicide Severity Rating Scale (C-SSRS) • Potential withdrawal symptoms using the 20-item Physician Withdrawal Checklist (PWC-20)
Safety and tolerability of study drug was evaluated by incidence of adverse events/serious adverse events, vital signs, clinical laboratory evaluations, and 12-lead ECG.
Suicidality was monitored by the C-SSRS. Potential withdrawal symptoms after discontinuation of Compound (1) was assessed using the PWC-20.
Safety and tolerability were evaluated by incidence and severity of adverse events (AEs), serious adverse events (SAEs), changes from baseline in clinical laboratory evaluations, vital signs, and 12-lead electrocardiography. Suicidality was monitored by the Columbia Suicide Severity Rating Scale (C-SSRS). The Physician Withdrawal Checklist-20 total score (PWC-20TS) was used to monitor for the presence of potential withdrawal symptoms following discontinuation of Compound (1)-50 mg.

[2] = test system: adult female subjects with severe postpartum depression (PPD); assay: Phase 3 PPD study (NCT02978326): safety, TEAEs and NNH; format: in vivo, human
Experimental: Safety Endpoints: Safety and tolerability of study drug was evaluated by frequency of adverse events; severity, relatedness, and seriousness of adverse events; clinical laboratory measures, vital signs, ECGs; and concomitant medication usage. Suicidality was monitored using the C-SSRS.
Adverse events were coded using Medical Dictionary for Regulatory Activities (MedDRA™) Version 19.1 or higher. […] The incidence of adverse events was also presented by maximum severity and relationship to study drug. Vital signs, clinical laboratory measures, ECG, concomitant medication usage, and C-SSRS data was summarized by treatment, where applicable. Out-of-range safety endpoints could be categorized as low or high, where applicable. Safety data was summarized and examined for possible relationships between subject characteristics and plasma Compound (1) concentrations, as appropriate. Suicidality data collected using the C-SSRS at baseline and at each visit during the active Treatment Period was listed for all subjects. The C-SSRS listings included behavior type and/or category for suicidal ideation and suicidal behavior of the C-SSRS.
Sustained Response or Remission was defined as continued categorization of a Responder/Remitter at both days 15 and 45. Tolerability and safety outcomes included number needed to harm (NNH) for discontinuation due to an AE, as well as individual safety events of interest. NNH was calculated for (1) AEs with incidence ≥2% with Compound (1) and higher rate than placebo, and (2) the proportion of patients in each treatment arm discontinuing the study drug due to an AE. 95% confidence intervals (CIs) were calculated based upon Wilson score intervals.

[3] = test system: patients with MDD; assay: Phase 2 clinical trial of Compound (1) 30 mg in MDD (NCT03000530): TEAEs; format: in vivo, human
Excerpt: The study design and results, if applicable, of the clinical trials identified by the NCT numbers are each incorporated by reference herein in its entirety.
The majority of patients receiving Compound (1) and experiencing a TEAE reported TEAEs mild and moderate in severity: clinical trial of Example 4 94%, Phase 2 clinical trial conducted by Applicant 100%, previous Phase 3 clinical trial conducted by Applicant 98%, and clinical trial of Example 1 95.0%.

[4] = test system: synaptic and extrasynaptic GABAA receptors; conditions: in vitro; cited from earlier work
[5] = 50 mg (n = 268), through Day 42

In the case of `C[C@@]1(O)CC[C@H]2[C@H](CC[C@@H]3[C@@H]2CC[C@]2(C)[C@@H](C(=O)Cn4cc(C#N)cn4)CC[C@@H]32)C1` [Compound (1), 1-(2-((3R,5R,8R,9R,10S,13S,14S,17S)-3-hydroxy-3,13-dimethylhexadecahydro-1H-cyclopenta[a]phenanthren-17-yl)-2-oxoethyl)-1H-pyrazole-4-carbonitrile], the “AEs of loss of consciousness, weight gain, sexual dysfunction, euphoria” value ([1]; 50 mg) is reported as “no loss of consciousness, weight gain, sexual dysfunction, or euphoria reported”, the Overall tolerability ([1]; 50 mg) is reported as “generally well-tolerated” and the “TEAE Alanine aminotransferase increased” value [1, 5] is reported as 3 (1.1%) n (%). The “TEAE Dry mouth” value [1, 5] was 10 (3.7%) n (%), the “TEAE Tremor” value [1, 5] was 8 (3.0%) n (%) and the “Any TEAE” value ([1]; 50 mg, ADT use at baseline=Yes (N = 79)) was 50 (63.3) n (%). For the same compound, the “TEAE Abnormal dreams” value ([1]; 50 mg, ADT=Yes (N = 79)) was 2 (2.5) n (%), the “TEAE Alanine aminotransferase increased” value ([1]; 50 mg, ADT=Yes (N = 79)) was 2 (2.5) n (%) and the “TEAE Diarrhea” value ([1]; 50 mg, ADT=Yes (N = 79)) was 4 (5.1) n (%). The “TEAE Disturbance in attention” value ([1]; 50 mg, ADT=Yes (N = 79)) was 0 n (%), the “TEAE Dizziness” value ([1]; 50 mg, ADT=Yes (N = 79)) was 10 (12.7) n (%) and the “TEAE Dry mouth” value ([1]; 50 mg, ADT=Yes (N = 79)) was 4 (5.1) n (%). The “TEAE Flatulence” value ([1]; 50 mg, ADT=Yes (N = 79)) was 0 n (%), the “TEAE Gastroenteritis” value ([1]; 50 mg, ADT=Yes (N = 79)) was 2 (2.5) n (%) and the “TEAE Headache” value ([1]; 50 mg, ADT=Yes (N = 79)) was 9 (11.4) n (%). The “TEAE Insomnia” value ([1]; 50 mg, ADT=Yes (N = 79)) was 2 (2.5) n (%), the “TEAE Nausea” value ([1]; 50 mg, ADT=Yes (N = 79)) was 1 (1.3) n (%) and the “TEAE Restlessness” value ([1]; 50 mg, ADT=Yes (N = 79)) was 2 (2.5) n (%). The “TEAE Sedation” value ([1]; 50 mg, ADT=Yes (N = 79)) was 7 (8.9) n (%), the “TEAE Somnolence” value ([1]; 50 mg, ADT=Yes (N = 79)) was 9 (11.4) n (%) and the “TEAE Suicidal ideation” value ([1]; 50 mg, ADT=Yes (N = 79)) was 3 (3.8) n (%). The “TEAE Tremor” value ([1]; 50 mg, ADT=Yes (N = 79)) was 3 (3.8) n (%), the “TEAE Upper respiratory tract infection” value ([1]; 50 mg, ADT=Yes (N = 79)) was 2 (2.5) n (%) and the “TEAE Urinary tract infection” value ([1]; 50 mg, ADT=Yes (N = 79)) was 2 (2.5) n (%). The “C-SSRS: No suicidal ideation/behavior” value ([1]; 50 mg, Day 8 (N = 255)) was 237 (92.9) n (%), the “C-SSRS: Suicidal behavior” value ([1]; 50 mg, Day 8 (N = 255)) was 0 n (%) and the “C-SSRS: Suicidal ideation” value ([1]; 50 mg, Day 8 (N = 255)) was 18 (7.1) n (%). The “C-SSRS: No suicidal ideation/behavior” value ([1]; 50 mg, Day 15 (N = 248)) was 229 (92.3) n (%), the “C-SSRS: Suicidal behavior” value ([1]; 50 mg, Day 15 (N = 248)) was 0 n (%) and the “C-SSRS: Suicidal ideation” value ([1]; 50 mg, Day 15 (N = 248)) was 19 (7.7) n (%). The “PWC-20 total score change from first assessment (CFFA), mean (SD)” value ([1]; 50 mg, Day 18) was −1.2 (4.3) and −1.2 (4.32), the “Withdrawal symptoms by PWC-20” value ([1]; 50 mg, Day 18 or 21) was “No signals for withdrawal symptoms” and the “PWC-20 total score change from first assessment (CFFA), mean (SD)” value ([1]; 50 mg, Day 21) was −0.3 (4.6) and −0.3 (4.37). For the same compound, the “C-SSRS: No suicidal ideation/behavior” value ([1]; 50 mg, Day 42 (N = 240)) was 223 (92.9) n (%), the “C-SSRS: Suicidal behavior” value ([1]; 50 mg, Day 42 (N = 240)) was 0 n (%) and the “C-SSRS: Suicidal ideation” value ([1]; 50 mg, Day 42 (N = 240)) was 17 (7.1) n (%). For the same compound, the “Suicidal ideation/behavior signal by C-SSRS” value ([1]; 50 mg, throughout the study) was “No signal of increased suicidal ideation/behavior”, the “Patients with a TEAE whose TEAEs were mild and moderate in severity” value (shortened to “Patients”) ([1]; clinical trial of Example 1) was 95.0% and the “Loss of consciousness or syncope” value ([2]; 30 mg) was “no reports of loss of consciousness or syncope”. For the same compound, the “NNH vs placebo: AE leading to treatment discontinuation” value ([2]; 30 mg) was 78 (ns), the “NNH vs placebo: Diarrhoea” value ([2]; 30 mg) was 28 (ns) and the “NNH vs placebo: Dizziness” value ([2]; 30 mg) was 46 (ns). For the same compound, the “NNH vs placebo: Dry mouth (Gastrointestinal disorders)” value ([2]; 30 mg) was 26 (ns), the “NNH vs placebo: Dry mouth (under Infections and infestations)” value ([2]; 30 mg) was 41 (ns) and the “NNH vs placebo: Fatigue” value ([2]; 30 mg) was 41 (ns). For the same compound, the “NNH vs placebo: Pain in extremity” value ([2]; 30 mg) was 84 (ns), the “NNH vs placebo: Sedation” value ([2]; 30 mg) was 20 (ns) and the “NNH vs placebo: Somnolence” value ([2]; 30 mg) was 23 (ns). For the same compound, the “NNH vs placebo: Upper respiratory tract infection” value ([2]; 30 mg) was 16 (ns), the Overall tolerability ([2]; 30 mg) was “generally well tolerated” and the Diarrhoea ([2]; 30 mg (N = 78)) was 5 (6.4%) n (%). The Dizziness ([2]; 30 mg (N = 78)) was 6 (7.7%) n (%), the “Dry mouth (Gastrointestinal disorders)” value ([2]; 30 mg (N = 78)) was 3 (3.8%) n (%) and the “Dry mouth (listed under Infections and infestations)” value ([2]; 30 mg (N = 78)) was 3 (3.8%) n (%). The Fatigue ([2]; 30 mg (N = 78)) was 3 (3.8%) n (%), the Pain in extremity ([2]; 30 mg (N = 78)) was 2 (2.6%) n (%) and the Sedation ([2]; 30 mg (N = 78)) was 4 (5.1%) n (%). The Somnolence ([2]; 30 mg (N = 78)) was 12 (15.4%) n (%), the “Subjects with an AE leading to treatment discontinuation” value ([2]; 30 mg (N = 78)) was 1 (1.3%) n (%) and the “Upper respiratory tract infection” value ([2]; 30 mg (N = 78)) was 6 (7.7%) n (%). For the same compound, the “Patients” value ([2]; clinical trial of Example 4) was 94%, the Diarrhea ([3]; 30 mg (N = 45)) was 0 n (%) and the URTI ([3]; 30 mg (N = 45)) was 0 n (%). The “Patients” value ([3]; Phase 2 clinical trial) was 100% and the “GABAA receptor binding and current potentiation” value [4] was “bind to both synaptic and extrasynaptic GABAA receptors, potentiating both phasic and tonic currents”.
